# Activity calls are given as the source filed them. The rule behind the calls is not given here.
# What was measured:
# NCI-H460 = assay: Growth inhibition of human NCI-H460 cells by sulforhodamine B assay; assay type: functional
# DU-145 = assay: Growth inhibition of human DU145 cells by sulforhodamine B assay; assay type: functional
# SK-OV-3 = assay: Growth inhibition of human SKOV3 cells by sulforhodamine B assay; assay type: functional
# HUVEC [1] = assay: Vascular disrupting activity in HUVEC assessed as disruption of capillary-like network of tubules at 0.01 to 1 uM after 2 hrs by matrigel assay; assay type: functional, cell-based; details: Homo sapiens
# Tubulin = Tubulin (Bos taurus, UniProt Q6B856+Q862L2+Q862F3); assay: Inhibition of bovine brain tubulin polymerization after 20 mins by spectrophotometric analysis
# Tubulin (Homo sapiens) [2] = target: T1, Tubulin (Homo sapiens) (UniProt P68371+Q9H4B7+P0DPH7+P68366+Q13509+Q71U36+P04350+Q3ZCM7+P07437+P68363+Q9BQE3+Q6PEY2+Q13885+Q9BVA1+Q9BUF5); assay: Displacement of [3H]-Colchicine from tubulin (unknown origin) at 5 uM relative to control; assay type: protein-complex assay
# Tubulin (Homo sapiens) [3] = target: T1, Tubulin (Homo sapiens); assay: Displacement of [3H]-Colchicine from tubulin (unknown origin) at 1 uM relative to control; assay type: protein-complex assay
# HUVEC [4] = assay: Vascular disrupting activity in HUVEC assessed as disruption of capillary-like network of tubules after 2 hrs by matrigel assay; assay type: functional, cell-based; details: Homo sapiens
# HUVEC [5] = assay: Vascular disrupting activity in HUVEC assessed as cell rounding at 0.1 to 1 uM after 2 hrs by matrigel assay; assay type: functional, cell-based; details: Homo sapiens
# HUVEC [6] = assay: Vascular disrupting activity in HUVEC assessed as disruption of capillary-like network of tubules at 0.01 to 0.1 uM after 2 hrs by matrigel assay; assay type: functional, cell-based; details: Homo sapiens
# HUVEC [7] = assay: Vascular disrupting activity in HUVEC assessed as disruption of capillary-like network of tubules at 1 uM after 2 hrs by matrigel assay; assay type: functional, cell-based; details: Homo sapiens
# HUVEC [8] = assay: Vascular disrupting activity in HUVEC assessed as cell rounding at 1 uM after 2 hrs by matrigel assay; assay type: functional, cell-based; details: Homo sapiens
Compound,GI50 (NCI-H460),"GI50 (DU-145; Homo sapiens, DU-145)",GI50 (SK-OV-3),IC50 (Tubulin),GI50 (DU-145),inhibition (Tubulin (Homo sapiens) [2]),other results
COc1ccc2c(c1N)CCCC=C2c1cc(OC)c(OC)c(OC)c1 [listing 1 of 3 here],,,0.0329 nM,1200 nM,1.11 nM,,
COc1ccc2c(c1N)CCCC=C2c1cc(OC)c(OC)c(OC)c1 [listing 2 of 3 here],,,,,,91%,inhibition (Tubulin (Homo sapiens) [3]): 65%; Activity (HUVEC [4]): Dose-dependent effect; Activity (HUVEC [5]): Active
COc1cc(C2=CCCCc3c2ccc(OC)c3[N+](=O)[O-])cc(OC)c1OC,216 nM,211 nM,152 nM,2500 nM,,63%,Activity (HUVEC [6]): inactive; Activity (HUVEC [7]): Active; Activity (HUVEC [8]): Active
COc1ccc2c(c1N)CCCC=C2c1cc(OC)c(OC)c(OC)c1 [listing 3 of 3 here],,,,,3.53 nM,,

# Continued, in another order:
GI50 (NCI-H460),"GI50 (DU-145; Homo sapiens, DU-145)",GI50 (SK-OV-3),Compound,IC50 (Tubulin),GI50 (DU-145),inhibition (Tubulin (Homo sapiens) [2]),other results
2.8 nM,0.54 nM,0.42 nM,COc1ccc(/C=C\c2cc(OC)c(OC)c(OC)c2)cc1O [COMBRETASTATIN A4],,,,Activity (HUVEC [1]): Active
15 nM,33 nM,38 nM,COc1ccc(/C=C\c2cc(OC)c(OC)c(OC)c2)c(O)c1O [COMBRETASTATIN A-1],,,,

# Reference: ChEMBL document CHEMBL3217721 (Medchemcomm, 2012)
